SMILES strings stand for the structures. Active and inactive are the calls of the source. The calls are words filed in the database; no cut-off is given here.

In general, IC50 refers to the midpoint of a concentration-inhibition curve.

Data set [1] relates to MCF7. Kind of data set: Antiproliferative activity against human MCF7 cells assessed as inhibition of cell proliferation incubated for 72 hrs by MTT assay. In kind it is functional, cell-based. To be noted: MCF7, 72 h. A general note: Tetrazolium dyes change colour on reduction, which living cells bring about.
The subject of a further data set is MX1. The experiment in a line: Antiproliferative activity against human MX1 cells assessed as inhibition of cell proliferation incubated for 72 hrs by MTT assay. In kind it is functional, cell-based. The settings on record: MX1, 72 h.
Data set [2] concerns the target Protein cereblon/Heat shock protein HSP 90-beta (Homo sapiens) (UniProt P08238+Q96SW2). Kind of data set: PROTAC activity at CRBN/HSP90beta in human MCF7 cells assessed as induction of HSP90beta degradation at 0.5 uM incubated for 8 hrs by Western blot analysis. In kind it is cell-based.
For the next data set, the system named is MDA-MB-468. Kind of data set: Antiproliferative activity against human MDA-MB-468 cells assessed as inhibition of cell proliferation incubated for 72 hrs by MTT assay. To be noted: MDA-MB-468, 72 h. In kind it is functional, cell-based.
For another data set, the system named is MDA-MB-231. Kind of data set: Antiproliferative activity against human MDA-MB-231 cells assessed as inhibition of cell proliferation incubated for 72 hrs by MTT assay. In kind it is functional, cell-based. To be noted: MDA-MB-231, 72 h.
In data set [3] the target is Protein cereblon/Heat shock protein HSP 90-alpha (Homo sapiens, UniProt P07900+Q96SW2). Kind of data set: PROTAC activity at CRBN/HSP90alpha in human MCF7 cells assessed as induction of HSP90alpha degradation at 0.5 uM incubated for 8 hrs by Western blot analysis. In kind it is cell-based. A general note: A western blot detects proteins with antibodies after separation by electrophoresis.

The target of data set [4] is T1, Heat shock protein HSP 90-alpha (Homo sapiens, UniProt P07900). Kind of data set: Induction of HSP90alpha degradation in human MCF7 cells at 0.5 uM incubated for 8 hrs by Western blot analysis. In kind it is cell-based.
The test system of data set [5] is MCF7. The experiment in a line: Potency index, ratio of AT13387 IC50 to test compound IC50 for antiproliferative activity against human MCF7 cells assessed as inhibition of cell proliferation incubated for 72 hrs by MTT assay. In kind it is functional.
Data set [6] can be described thus: Toxicity in BALB/c mouse implanted with mouse 4T1 cells assessed as effect on body weight at 50 mg/kg, ip administered twice a week and measured after 20 days. In kind it is organism-based. The settings on record: in vivo, 480 h, time 20 day.
Data set [7] has as its system 4T1. The experiment in a line: Antitumor activity against mouse 4T1 cells implanted in BALB/c mouse assessed as tumor growth inhibition at 50 mg/kg, ip administered twice a week and measured after 20 days relative to control. In kind it is functional. To be noted: 4T1, 480 h, time 20 day, read-out: TGI.
Data set [8] concerns the target T1, Heat shock protein HSP 90-alpha. Kind of data set: Induction of HSP90alpha degradation in human MCF7 cells at 0.5 uM incubated for 8 hrs in presence of pomalidomide by Western blot analysis. In kind it is cell-based.
For data set [9], the system named is 4T1. Kind of data set: Antitumor activity against mouse 4T1 cells implanted in BALB/c mouse assessed as reduction in tumor weight at 50 mg/kg, ip administered twice a week and measured after 20 days. The settings on record: time 20.0 day. In kind it is functional, organism-based.
Data set [10] deals with Heat shock protein HSP 90-beta (Homo sapiens, UniProt P08238). The experiment in a line: Inhibition of HSP90beta (unknown origin) incubated for 24 hrs by fluorescence polarization assay. On the technique in general: Fluorescence polarisation rises when a labelled molecule tumbles more slowly, as on binding a larger partner.
Chain of Heat shock protein HSP 90-beta (P08238 whole entry, the tested form may be a part): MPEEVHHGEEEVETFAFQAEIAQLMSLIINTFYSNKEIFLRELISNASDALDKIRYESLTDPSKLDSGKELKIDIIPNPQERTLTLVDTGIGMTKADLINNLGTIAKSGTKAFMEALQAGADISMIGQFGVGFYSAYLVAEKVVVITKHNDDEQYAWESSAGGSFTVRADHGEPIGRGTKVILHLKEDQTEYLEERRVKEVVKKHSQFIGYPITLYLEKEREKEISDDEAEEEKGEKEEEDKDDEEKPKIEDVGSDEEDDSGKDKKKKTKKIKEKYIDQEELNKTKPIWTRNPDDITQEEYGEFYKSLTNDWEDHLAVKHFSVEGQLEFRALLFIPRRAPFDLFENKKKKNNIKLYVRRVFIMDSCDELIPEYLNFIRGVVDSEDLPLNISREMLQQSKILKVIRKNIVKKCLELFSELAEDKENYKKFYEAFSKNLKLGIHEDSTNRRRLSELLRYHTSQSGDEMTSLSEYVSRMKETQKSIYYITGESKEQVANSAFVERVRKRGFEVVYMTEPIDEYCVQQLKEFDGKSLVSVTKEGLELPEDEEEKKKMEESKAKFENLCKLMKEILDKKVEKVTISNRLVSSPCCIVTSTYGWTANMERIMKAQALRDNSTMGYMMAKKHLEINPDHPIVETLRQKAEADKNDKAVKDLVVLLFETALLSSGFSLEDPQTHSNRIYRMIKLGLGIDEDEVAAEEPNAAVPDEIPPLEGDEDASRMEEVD
For data set [11], the target named is T1, Heat shock protein HSP 90-alpha. The experiment in a line: Inhibition of 6His-tagged human HSP90alpha N-terminal domain (1 to 223 residues) expressed in Escherichia coli BL21 DE3 cells incubated for 24 hrs by fluorescence polarization assay.

Take `CC(C)c1cc(C(=O)N2Cc3ccc(CN4CCN(CCCCC(=O)Nc5cccc6c5C(=O)N(C5CCC(=O)NC5=O)C6=O)CC4)cc3C2)c(O)cc1O` (centres undefined): the IC50 in the data set with MCF7 [1] turned out to be 4.28 µM; in the data set on MX1 it was 6.78 µM; in the data set with MDA-MB-468 it was 5.27 µM; with MDA-MB-231, 18.8 µM. Besides, the result in data set [2] and in data set [3] was inactive.

For the molecule `CC(C)c1cc(C(=O)N2Cc3ccc(CN4CCN(C(=O)CNc5cccc6c5CN(C5CCC(=O)NC5=O)C6=O)CC4)cc3C2)c(O)cc1O` (centres undefined), the IC50 came out at 2.03 µM with MCF7 [1], 3.46 µM with MX1, 5.1 µM in the data set on MDA-MB-468 and 7.69 µM in the data set on MDA-MB-231. The outcome in data set [2] and in data set [3] was inactive.

For `CC(C)c1cc(C(=O)N2Cc3ccc(CN4CCN(C(=O)CCCNc5cccc6c5CN(C5CCC(=O)NC5=O)C6=O)CC4)cc3C2)c(O)cc1O` (centres undefined), the half-inhibitory concentration (IC50) came out at 3.42 µM with MCF7 [1], 1.19 µM with MX1, 25.8 µM in the data set with MDA-MB-468 and 7.87 µM in the data set on MDA-MB-231. Also, the result in [2] and in [3] was inactive.

On to `CC(C)c1cc(C(=O)N2Cc3ccc(CN4CCN(C(=O)CCCCNc5cccc6c5CN(C5CCC(=O)NC5=O)C6=O)CC4)cc3C2)c(O)cc1O` (centres undefined), for which the IC50 is 1.3 µM in the data set with MCF7 [1], 2.02 µM in the data set on MX1, 13.2 µM in the data set on MDA-MB-468 and 4.3 µM in the data set on MDA-MB-231. Moreover, the result in data set [2] and in data set [3] was inactive.

With `Nc1cccc2c1C(=O)N(C1CCC(=O)NC1=O)C2=O` (centres undefined) [POMALIDOMIDE], the IC50 in the data set with MCF7 [1], in the data set on MX1, with MDA-MB-468 and in the data set with MDA-MB-231 was over 100 µM in each case. In data set [4], the result was inactive.

Regarding `CC(C)c1cc(C(=O)N2Cc3ccc(CN4CCN(CCCCC(=O)Nc5cccc6c5C(=O)N(C5CCC(=O)NC5=O)C6=O)CC4)cc3C2)ccc1O` (centres undefined), the IC50 was determined as 48.2 µM with MCF7 [1], 76.6 µM with MX1, 87.1 µM with MDA-MB-468 and 94.2 µM in the data set with MDA-MB-231.

Take `CC(C)c1cc(C(=O)N2Cc3ccc(CN4CCN(CCC(=O)Nc5cccc6c5C(=O)N(C5CCC(=O)NC5=O)C6=O)CC4)cc3C2)c(O)cc1O` (centres undefined): the IC50 in the data set on MCF7 [1] is 0.03 µM; with MX1 it was 0.09 µM; in the data set with MDA-MB-468 it was 6.19 µM; with MDA-MB-231, 6.8 µM. For the same molecule, the result in data set [2] and in data set [3] was inactive. Moreover, the “Ratio IC50” value in the data set on MCF7 [5] is on record as about 35.

Turning to `CC(C)c1cc(C(=O)N2Cc3ccc(CN4CCN(CCCCCC(=O)Nc5cccc6c5C(=O)N(C5CCC(=O)NC5=O)C6=O)CC4)cc3C2)ccc1O` (centres undefined), the IC50 was 30.5 µM in the data set on MCF7 [1], 34.6 µM in the data set on MX1, 30.1 µM in the data set with MDA-MB-468 and 71.8 µM in the data set with MDA-MB-231.

For the molecule `CC(C)c1cc(C(=O)N2Cc3ccc(CN4CCN(CCCCCC(=O)Nc5cccc6c5C(=O)N(C5CCC(=O)NC5=O)C6=O)CC4)cc3C2)c(O)cc1O` (centres undefined), the IC50 in the data set on MCF7 [1] stood at 0.58 µM; with MX1, 0.03 µM; in the data set on MDA-MB-468 it was 27.2 µM; with MDA-MB-231, 5.11 µM. Moreover, the outcome in [2] and in data set [3] was inactive.

Take `CC(C)c1cc(C(=O)N2Cc3ccc(CN4CCN(CCCCCCCC(=O)Nc5cccc6c5C(=O)N(C5CCC(=O)NC5=O)C6=O)CC4)cc3C2)ccc1O` (centres undefined): the IC50 was 18.5 µM in the data set on MCF7 [1], 63 µM in the data set with MX1, 35.9 µM with MDA-MB-468 and over 100 µM with MDA-MB-231.

Take `Nc1cccc2c1CN(C1CCC(=O)NC1=O)C2=O` (centres undefined) [LENALIDOMIDE]: the IC50 in the data set on MCF7 [1], with MX1, in the data set on MDA-MB-468 and in the data set on MDA-MB-231 was over 100 µM in each case.

For `CC(C)c1cc(C(=O)N2Cc3ccc(CN4CCN(CCCC(=O)Nc5cccc6c5C(=O)N(C5CCC(=O)NC5=O)C6=O)CC4)cc3C2)ccc1O` (centres undefined), the IC50 with MCF7 [1] came to 7.5 µM; with MX1, 40.8 µM; in the data set with MDA-MB-468 it was 41.6 µM; in the data set on MDA-MB-231, 72.8 µM.

Take `CC(C)c1cc(C(=O)N2Cc3ccc(CN4CCN(CCCCCCC(=O)Nc5cccc6c5C(=O)N(C5CCC(=O)NC5=O)C6=O)CC4)cc3C2)c(O)cc1O` (centres undefined): the IC50 in the data set with MCF7 [1] amounted to 0.92 µM; with MX1, 0.31 µM; in the data set with MDA-MB-468 it was 3.67 µM; in the data set on MDA-MB-231, 12.1 µM. For the same molecule, the result in [2] and in data set [3] was inactive.

Consider `CC(C)c1cc(C(=O)N2Cc3ccc(CN4CCN(CCC(=O)Nc5cccc6c5C(=O)N(C5CCC(=O)NC5=O)C6=O)CC4)cc3C2)ccc1O` (centres undefined), for which the IC50 was 27.1 µM with MCF7 [1], over 100 µM in the data set on MX1, over 100 µM with MDA-MB-468 and over 100 µM in the data set with MDA-MB-231.

Consider `CC(C)c1cc(C(=O)N2Cc3ccc(CN4CCN(C)CC4)cc3C2)c(O)cc1O` [ONALESPIB], for which the IC50 amounted to 0.84 µM in the data set with MCF7 [1], 0.5 µM in the data set with MX1, 3.31 µM in the data set with MDA-MB-468 and 2.6 µM in the data set on MDA-MB-231. Moreover, the Activity result in data set [6] is reported as “Toxic”. In addition, the result in data set [4] and in data set [8] was inactive. Besides, the inhibition in vivo at 50 mg/kg with 4T1 [7] came to 43.2%. Also, the outcome in the data set with 4T1 [9] was Active.

`CC(C)c1cc(C(=O)N2Cc3ccccc3C2)c(O)cc1O` registered an IC50 in [10] of 0.004 µM.

Regarding `CC(C)c1ccc(O)c(C(=O)N2Cc3ccccc3C2)c1`, the values for the IC50 in data set [10] and in data set [11] were 1.6 µM and 3.21 µM, respectively.

On to `CC(C)c1cc(C(=O)N2Cc3ccc(CN4CCN(C(=O)CCCCCNc5cccc6c5CN(C5CCC(=O)NC5=O)C6=O)CC4)cc3C2)c(O)cc1O` (centres undefined), for which the IC50 is 4.47 µM in the data set with MCF7 [1], 1.93 µM with MX1, 0.75 µM with MDA-MB-468 and 4.79 µM with MDA-MB-231. Besides, the result in data set [2] and in [3] was inactive.

For the molecule `CC(C)c1cc(C(=O)N2Cc3ccc(CN4CCN(CCCC(=O)Nc5cccc6c5C(=O)N(C5CCC(=O)NC5=O)C6=O)CC4)cc3C2)c(O)cc1O` (centres undefined), the IC50 in the data set on MCF7 [1] was 0.02 µM; in the data set with MX1 it was 0.22 µM; in the data set with MDA-MB-468 it was 3.03 µM; in the data set on MDA-MB-231, 2.04 µM. Also, the outcome in [2] and in data set [3] was inactive.

As to `CC(C)c1cc(C(=O)N2Cc3ccccc3C2)ccc1O`, the IC50 in data set [10] stood at 4.47 µM; in [11], 0.41 µM.

With `CC(C)c1cc(C(=O)N2Cc3ccc(CN4CCN(CCCCCCCC(=O)Nc5cccc6c5C(=O)N(C5CCC(=O)NC5=O)C6=O)CC4)cc3C2)c(O)cc1O` (centres undefined), the IC50 in the data set on MCF7 [1] was 6.03 µM; with MX1 it was 4.94 µM; in the data set on MDA-MB-468 it was 30.6 µM; with MDA-MB-231 it was 62.8 µM. Moreover, the outcome in [2] and in data set [3] was inactive.
